Experimental data from US20050020501A1, “Methods of modulating the activity of mura” (SmithKline Beecham Corporation and SmithKline Beechm p.l.c., priority 2000, published 2005).
Values after ≈ are worked out from the molar mass of the structure shown. “Also recorded” adds a separate entry of the source. Structures can show the parent of a compound that is named as a salt. Where two headings read alike, the source gives them in different places.

Experiments:
S. pneumoniae 100993 = experiment: Antibacterial activity, minimum inhibitory concentration; format: cell-based, Streptococcus pneumoniae; settings: for Antibacterial activity compared across media: TH media and minimal media with and without supplements; for Effect of adding aromatic amino acids and PABA on antibacterial activity in minimal media: minimal media with versus without aromatic amino acids and PABA
Method: The antibacterial activity of ATA against S.pneumoniae100993 was measured in Todd Hewitt media, minimal media, and minimal media+aromatic amino acids (100 mg/L) and p-aminobenzoic acid (PABA) (0.2 mg/L). Glyphosate, chloramphenical and ciprofloxacin were controls.

[1] = molecular target: T1, EPSP Synthase (S. pneumoniae) (Streptococcus pneumoniae serotype 4, UniProt Q9S400); experiment: EPSPS kinetic assay, fluorescence coupled detection of inorganic phosphate release; format: biochemical; settings: for Inhibition type vs. S3P / Inhibition type vs. PEP: EPSP synthase; for Inhibition type vs. S3P: varied substrate S3P; for Inhibition of EPSPS (in words): rosolic acid tested up to 2 mM; for Inhibition type vs. PEP: varied substrate PEP
T1 construct: made in house
T1 sequence (Q9S400 whole entry): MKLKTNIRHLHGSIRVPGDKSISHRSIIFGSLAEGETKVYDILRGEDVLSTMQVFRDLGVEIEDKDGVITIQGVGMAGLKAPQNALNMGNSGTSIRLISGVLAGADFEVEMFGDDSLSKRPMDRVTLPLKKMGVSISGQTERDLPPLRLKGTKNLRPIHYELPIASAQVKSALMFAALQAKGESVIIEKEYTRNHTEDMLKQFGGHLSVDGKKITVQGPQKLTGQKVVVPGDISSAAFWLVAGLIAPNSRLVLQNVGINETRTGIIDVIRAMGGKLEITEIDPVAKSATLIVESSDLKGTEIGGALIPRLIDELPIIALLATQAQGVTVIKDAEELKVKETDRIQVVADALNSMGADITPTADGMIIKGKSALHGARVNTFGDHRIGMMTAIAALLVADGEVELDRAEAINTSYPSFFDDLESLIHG
Text: (§1) All chemicals including ATA and its salt forms are from Aldrich. SKF-26488-W3 was isolated as a high-throughput screen hit against EPSPS. Escherichia coli MurA (Marquardt, et al., J. Bacteriol., Vol. 174: 5748-5752 (1992)) and Streptococcus pneumoniae EPSPS (Du, et al., Eur. J. Biochem., Vol. 267: 222-227 (2000)) were expressed and purified as described previously.
(§2) The assays for both EPSPS and MurA are based on the detection of inorganic phosphate release. A fluorescence coupled assay was used for EPSPS and was performed in 100 mM HEPES, pH 7.0, 1 mM NH4Cl, 100 mM KCl. (Du, et al., Eur. J. Biochem., Vol. 267: 222-227 (2000)). MurA was assayed in 50 mM HEPES, pH 7.5, 1 mM DTI using the Malachite Green reagent (Lanzetta, et al., Anal. Biochem., Vol. 100: 95-97 (1979)). The Ki values were determined with fixed concentration of one substrate and varying concentrations of the other substrate and inhibitor. Data were analyzed using GraFit v4.09 (Erithacus Software Ltd.).

MurA (E. coli) = molecular target: T2, MurA (E. coli) (Escherichia coli, UniProt P0A749); experiment: MurA kinetic assay, Malachite Green detection of inorganic phosphate release; format: biochemical; settings: for Ki / Inhibition type vs. PEP / Inhibition type vs. UDPAG: MurA
T2 construct: made in house
T2 sequence (P0A749 whole entry): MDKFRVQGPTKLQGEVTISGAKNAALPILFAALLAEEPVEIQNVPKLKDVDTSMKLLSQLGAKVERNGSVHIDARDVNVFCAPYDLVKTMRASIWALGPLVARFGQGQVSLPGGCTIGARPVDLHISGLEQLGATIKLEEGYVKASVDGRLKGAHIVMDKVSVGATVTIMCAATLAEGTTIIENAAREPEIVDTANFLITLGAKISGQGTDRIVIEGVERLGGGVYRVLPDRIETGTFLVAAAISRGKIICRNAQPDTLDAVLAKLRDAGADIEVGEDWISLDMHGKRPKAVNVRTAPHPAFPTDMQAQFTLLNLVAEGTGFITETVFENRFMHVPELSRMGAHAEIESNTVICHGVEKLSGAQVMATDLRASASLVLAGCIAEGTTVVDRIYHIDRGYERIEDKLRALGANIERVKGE
Text: as §1, §2

[2] = Streptococcus pneumoniae, 100993, Chemically Defined Medium for Group A Streptococci without aromatic amino acids and PABA, read-out: Minimum Inhibitory Concentration, Minimal media
[3] = Streptococcus pneumoniae, 100993, JRH Strep media with aromatic amino acids and PABA, read-out: Minimum Inhibitory Concentration, Minimal media w/aa's + PABA
[4] = Streptococcus pneumoniae, 100993, Todd Hewitt broth, read-out: Minimum Inhibitory Concentration, TH
[5] = Streptococcus pneumoniae, 100993, read-out: Minimum Inhibitory Concentration, Minimal media
[6] = Streptococcus pneumoniae, 100993, read-out: Minimum Inhibitory Concentration, Minimal media w/aa's + PABA
[7] = Streptococcus pneumoniae, 100993, read-out: Minimum Inhibitory Concentration, TH

O=C(N[C@H](CO)[C@H](O)c1ccc([N+](=O)[O-])cc1)C(Cl)Cl [Chloramphenicol]
MIC (S. pneumoniae 100993; [2]): 2 µg/mL (≈ 6.19 µM)
MIC (S. pneumoniae 100993; [3]): 2 µg/mL
MIC (S. pneumoniae 100993; [4]): 2 µg/mL (≈ 6.19 µM)
Antibacterial activity compared across media (S. pneumoniae 100993): substantially the same

N.N.N.O=C(O)C1=CC(=C(c2ccc(O)c(C(=O)O)c2)c2ccc(O)c(C(=O)O)c2)C=CC1=O [ATA ammonium salt]
Inhibition type vs. S3P [1]: competitive inhibitors vs. S3P
Inhibition of EPSPS (in words) [1]: specific inhibitors of EPSPS

O=C(O)C1=CC(=C(c2ccc(O)c(C(=O)O)c2)c2ccc(O)c(C(=O)O)c2)C=CC1=O [ATA sodium salt]
Inhibition type vs. S3P [1]: competitive inhibitors vs. S3P
Inhibition of EPSPS (in words) [1]: specific inhibitors of EPSPS

O=C(O)c1cn(C2CC2)c2cc(N3CCNCC3)c(F)cc2c1=O [Ciprofloxacin]
MIC (S. pneumoniae 100993; [2]): 2 µg/mL (≈ 6.04 µM)
MIC (S. pneumoniae 100993; [3]): 2 µg/mL
MIC (S. pneumoniae 100993; [4]): 2 µg/mL (≈ 6.04 µM)
Antibacterial activity compared across media (S. pneumoniae 100993): substantially the same

O=C(O)C1=CC(=C(c2ccc(O)c(C(=O)O)c2)c2ccc(O)c(C(=O)O)c2)C=CC1=O [Aurin Tricarboxylic Acid]
Inhibition type vs. PEP [1]: Noncompetitive
Inhibition type vs. S3P [1]: Competitive
Inhibition type vs. S3P ([1]; listed as aurin tricarboxylic acid): competitive inhibitors vs. S3P
Ki ([1]; Ki vs. S3P, EPSPS, competitive vs. S3P, range given for ATA and its sodium and ammonium salts together): 2.8 to 4.5 µM
Potency against MurA relative to RA (MurA (E. coli); ATA versus RA, MurA from Escherichia coli): ~200 fold
Ki (MurA (E. coli); Ki vs. UDPAG, varied substrate UDPAG): 0.23 µM
Inhibition type vs. PEP (MurA (E. coli); varied substrate PEP): Non-specific inhibition
Inhibition type vs. UDPAG (MurA (E. coli); varied substrate UDPAG): Competitive
Inhibition type vs. UDPAG (MurA (E. coli); varied substrate UDPAG, listed as ATA): competitive vs UDPAG
Inhibition pattern of MurA versus both substrates (in words) (MurA (E. coli); versus UDPAG and PEP): specific inhibition patterns versus both substrates
MIC (S. pneumoniae 100993; [5]): 2 µg/mL (≈ 4.74 µM)
MIC (S. pneumoniae 100993; [6]): 4 µg/mL
MIC (S. pneumoniae 100993; [7]): > 128 µg/mL
Activity in minimal media relative to TH media (S. pneumoniae 100993; minimal media versus TH media): more than 64 fold
Effect of adding aromatic amino acids and PABA on antibacterial activity in minimal media (S. pneumoniae 100993): not reversed

O=C(O)C1=CC(=C(c2ccc(O)c(C(=O)O)c2)c2ccc(O)c(C(=O)O)c2)C=CC1=O [SKB-26488-W3, aurin tricarboxylic acid]
IC50 against EPSPS ([1]; high-throughput screening of EPSPS): in the μM range

O=C(O)CNCP(=O)(O)O [Glyphosate]
MIC (S. pneumoniae 100993; [5]): 512 µg/mL (≈ 3030 µM)
MIC (S. pneumoniae 100993; [6]): > 512 µg/mL
MIC (S. pneumoniae 100993; [7]): > 512 µg/mL
Antibacterial activity in TH media (in words) (S. pneumoniae 100993; TH media): no antibacterial activity
Effect of adding aromatic amino acids and PABA on antibacterial activity in minimal media (S. pneumoniae 100993): reversed

O=C1C=CC(=C(c2ccc(O)cc2)c2ccc(O)cc2)C=C1 [Rosolic Acid]
Inhibition type vs. PEP [1]: No inhibition (up to 2 mM)
Inhibition type vs. S3P [1]: No inhibition (up to 2 mM)
Inhibition of EPSPS (in words) [1]: does not inhibit EPSPS up to 2 mM
Inhibition type vs. PEP (MurA (E. coli); varied substrate PEP): Mixed type inhibition
Ki (MurA (E. coli); varied substrate PEP, mixed type inhibition, second constant, read-out: Ki′ vs. PEP): 273 µM
Ki (MurA (E. coli); varied substrate PEP, mixed type inhibition, read-out: Ki vs. PEP): 10.9 µM
Inhibition type vs. UDPAG (MurA (E. coli); varied substrate UDPAG): Competitive
Inhibition type vs. UDPAG (MurA (E. coli); varied substrate UDPAG, listed as RA): competitive vs UDPAG; also recorded: competitive inhibitor versus UDPAG, although a poor one
Ki (MurA (E. coli); varied substrate UDPAG, read-out: Ki vs. UDPAG): 44.7 µM
